Active and inactive are the calls of the source.
Columns and labels:
[1] = target: Intestinal-type alkaline phosphatase (Homo sapiens, UniProt P09923); test: activation of human intestinal alkaline phosphatase – biochemical, dose response (AID 488873); type: functional
[2] = target: Intestinal-type alkaline phosphatase (Mus musculus, UniProt P24822); test: mouse intestinal alkaline phosphatase activators, dose response, biochemical, luminescence, uHTS hits (AID 488783); type: functional
[3] = target: T1, Alkaline phosphatase, tissue-nonspecific isozyme (Homo sapiens, UniProt P05186); test: activation of tissue-nonspecific alkaline phosphatase – biochemical, TNAP isozyme, mouse IAP uHTS hits, selectivity assay for mouse IAP activator project, dose response (AID 488880); type: functional
T1 sequence (P05186 whole entry): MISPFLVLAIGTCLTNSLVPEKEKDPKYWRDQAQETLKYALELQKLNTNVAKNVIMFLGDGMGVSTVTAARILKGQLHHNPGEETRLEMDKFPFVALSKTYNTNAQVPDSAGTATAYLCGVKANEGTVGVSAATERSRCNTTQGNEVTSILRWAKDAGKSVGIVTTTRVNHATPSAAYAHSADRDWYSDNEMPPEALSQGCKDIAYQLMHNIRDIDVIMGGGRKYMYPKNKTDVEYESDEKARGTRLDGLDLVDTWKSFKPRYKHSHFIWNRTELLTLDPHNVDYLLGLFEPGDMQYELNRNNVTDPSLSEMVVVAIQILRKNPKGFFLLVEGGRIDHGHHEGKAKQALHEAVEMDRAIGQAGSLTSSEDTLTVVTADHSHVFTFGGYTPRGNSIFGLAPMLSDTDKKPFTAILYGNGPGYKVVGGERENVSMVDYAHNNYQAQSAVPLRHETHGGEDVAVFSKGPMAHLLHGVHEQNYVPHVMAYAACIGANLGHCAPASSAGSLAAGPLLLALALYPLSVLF

[4] = target: T2, Delta-type opioid receptor (Homo sapiens, UniProt P41143); test: HTS Image-Based Screen for Antagonists of the DOR Receptor. [Related pubchem assays (depositor defined):AID1777, AID1785, AID1786, AID2133]; type: functional
[5] = luciferase reporter signal suppression in cells – H4 neuroglioma cells, luminescence, dose response (AID 1990); type: functional, cell-based
Mu-type opioid receptor = Mu-type opioid receptor (Homo sapiens, UniProt P35372); test: HTS Image-Based Screen for Agonists of the MOR Receptor. [Related pubchem assays (depositor defined):AID1777, AID1785, AID1786, AID2133]; type: functional;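 further: imaging of beta-arrestin GFP recruitment into spots after receptor activation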
[6] = target: T2, Delta-type opioid receptor; test: HTS Image-Based Screen for Agonists of the DOR Receptor. [Related pubchem assays (depositor defined):AID1777, AID1786, AID2133]; type: functional
BJ [7] = test: BJ-TERT fibroblast viability loss – cell-based, RAS-independent, luminescence, dose response (AID 1933); type: functional; settings: Homo sapiens
cells [8] = type: functional, cell-based
[9] = Luminescence Cell-Based Dose Response HTS to Identify Inhibitors of 5'UTR Stem-Loop Driven Prion Protein mRNA Translation in H4 Neuroglioblastoma Cells. [Related pubchem assays: 1827 (Project Summary), 1813 (Primary HTS)]; type: functional
[10] = alpha-synuclein stem-loop luciferase translation blockers – H4 neuroglioma cells, luminescence, confirmation (AID 1988); type: functional, cell-based
BJ [11] = test: cells; type: functional, cell-based; settings: Homo sapiens
[12] = Luminescence-based dose response cell-based high throughput screening assay for cytotoxic compounds using the IEC-6 intestinal epithelial cell line. [Related pubchem assays: 1858 (Summary AID.), 1825 (Counterscreen.), 1907 (Confirmation screen.)]; type: functional
cells [13] = type: functional, cell-based; remark: listed apart in the source
[14] = target: T3, Kappa-type opioid receptor (Homo sapiens, UniProt P41145); type: functional
Beta-galactosidase = Beta-galactosidase (Escherichia coli, UniProt Q8VNN2); type: functional
BJ [15] = test: BJ-TERT-LT-ST fibroblast viability loss – cell-based, RAS-independent, luminescence, dose response (AID 1935); type: functional; settings: Homo sapiens;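 further: BJ fibroblasts immortalized with TERT plus LT and ST oncogenes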
[16] = target: T3, Kappa-type opioid receptor; type: functional; remark: listed apart in the source
[17] = DRD fibroblast viability loss – cell-based, non-viral oncogenic, luminescence, dose response (AID 1934); type: functional; settings: Homo sapiens
Caspase-3 = target: T4, Caspase-3 (Homo sapiens, UniProt P42574); type: functional;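 further: Dose-response selectivity test against caspase-3 for candidate inhibitors of sentrin-specific proteases (SENPs)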
T4 sequence (P42574 whole entry): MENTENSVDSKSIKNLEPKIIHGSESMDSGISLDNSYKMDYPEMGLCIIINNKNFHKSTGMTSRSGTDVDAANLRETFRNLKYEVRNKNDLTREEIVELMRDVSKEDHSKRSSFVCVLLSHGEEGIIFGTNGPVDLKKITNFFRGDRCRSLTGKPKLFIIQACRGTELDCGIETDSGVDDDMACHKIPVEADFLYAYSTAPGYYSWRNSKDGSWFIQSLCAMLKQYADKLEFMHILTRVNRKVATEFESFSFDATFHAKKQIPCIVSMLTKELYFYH

[18] = target: T5, Sentrin-specific protease 7 (Homo sapiens, UniProt Q9BQF6); type: functional;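 further: Luminescence-based dose-response confirmation of ultra-high-throughput screening hits, measuring inhibition of SENP7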
T5 sequence (Q9BQF6 whole entry): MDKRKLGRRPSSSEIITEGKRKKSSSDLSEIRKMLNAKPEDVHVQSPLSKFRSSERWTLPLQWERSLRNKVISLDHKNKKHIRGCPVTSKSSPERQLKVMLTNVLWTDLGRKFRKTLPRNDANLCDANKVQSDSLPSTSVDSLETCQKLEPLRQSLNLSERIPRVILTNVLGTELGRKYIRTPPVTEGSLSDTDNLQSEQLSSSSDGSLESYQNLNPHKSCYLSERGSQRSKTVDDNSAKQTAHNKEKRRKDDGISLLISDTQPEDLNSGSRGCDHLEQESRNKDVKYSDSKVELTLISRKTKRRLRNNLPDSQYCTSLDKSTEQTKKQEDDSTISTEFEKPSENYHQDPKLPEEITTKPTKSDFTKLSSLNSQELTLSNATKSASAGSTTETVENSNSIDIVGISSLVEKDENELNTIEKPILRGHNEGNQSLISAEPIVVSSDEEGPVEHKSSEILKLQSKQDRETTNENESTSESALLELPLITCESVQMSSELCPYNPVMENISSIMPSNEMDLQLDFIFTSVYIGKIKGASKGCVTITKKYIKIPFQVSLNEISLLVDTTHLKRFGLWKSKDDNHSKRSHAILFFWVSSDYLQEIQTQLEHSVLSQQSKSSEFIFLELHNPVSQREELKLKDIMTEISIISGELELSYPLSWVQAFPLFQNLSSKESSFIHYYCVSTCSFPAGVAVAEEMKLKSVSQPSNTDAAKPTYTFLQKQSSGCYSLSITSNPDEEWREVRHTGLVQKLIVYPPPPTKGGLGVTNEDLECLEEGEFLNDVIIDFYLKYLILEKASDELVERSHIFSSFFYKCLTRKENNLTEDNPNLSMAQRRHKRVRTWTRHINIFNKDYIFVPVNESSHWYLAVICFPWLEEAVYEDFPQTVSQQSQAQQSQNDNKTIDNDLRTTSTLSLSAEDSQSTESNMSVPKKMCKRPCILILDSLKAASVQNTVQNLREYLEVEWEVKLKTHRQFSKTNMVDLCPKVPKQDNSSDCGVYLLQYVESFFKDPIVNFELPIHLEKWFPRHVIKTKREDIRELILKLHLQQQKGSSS

[19] = target: T6, Sentrin-specific protease 6 (Homo sapiens, UniProt Q9GZR1); type: functional;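 further: Luminescence-based dose-response confirmatory assay of SENP6 inhibition, following up an ultra-high-throughput screen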
T6 sequence (Q9GZR1 whole entry): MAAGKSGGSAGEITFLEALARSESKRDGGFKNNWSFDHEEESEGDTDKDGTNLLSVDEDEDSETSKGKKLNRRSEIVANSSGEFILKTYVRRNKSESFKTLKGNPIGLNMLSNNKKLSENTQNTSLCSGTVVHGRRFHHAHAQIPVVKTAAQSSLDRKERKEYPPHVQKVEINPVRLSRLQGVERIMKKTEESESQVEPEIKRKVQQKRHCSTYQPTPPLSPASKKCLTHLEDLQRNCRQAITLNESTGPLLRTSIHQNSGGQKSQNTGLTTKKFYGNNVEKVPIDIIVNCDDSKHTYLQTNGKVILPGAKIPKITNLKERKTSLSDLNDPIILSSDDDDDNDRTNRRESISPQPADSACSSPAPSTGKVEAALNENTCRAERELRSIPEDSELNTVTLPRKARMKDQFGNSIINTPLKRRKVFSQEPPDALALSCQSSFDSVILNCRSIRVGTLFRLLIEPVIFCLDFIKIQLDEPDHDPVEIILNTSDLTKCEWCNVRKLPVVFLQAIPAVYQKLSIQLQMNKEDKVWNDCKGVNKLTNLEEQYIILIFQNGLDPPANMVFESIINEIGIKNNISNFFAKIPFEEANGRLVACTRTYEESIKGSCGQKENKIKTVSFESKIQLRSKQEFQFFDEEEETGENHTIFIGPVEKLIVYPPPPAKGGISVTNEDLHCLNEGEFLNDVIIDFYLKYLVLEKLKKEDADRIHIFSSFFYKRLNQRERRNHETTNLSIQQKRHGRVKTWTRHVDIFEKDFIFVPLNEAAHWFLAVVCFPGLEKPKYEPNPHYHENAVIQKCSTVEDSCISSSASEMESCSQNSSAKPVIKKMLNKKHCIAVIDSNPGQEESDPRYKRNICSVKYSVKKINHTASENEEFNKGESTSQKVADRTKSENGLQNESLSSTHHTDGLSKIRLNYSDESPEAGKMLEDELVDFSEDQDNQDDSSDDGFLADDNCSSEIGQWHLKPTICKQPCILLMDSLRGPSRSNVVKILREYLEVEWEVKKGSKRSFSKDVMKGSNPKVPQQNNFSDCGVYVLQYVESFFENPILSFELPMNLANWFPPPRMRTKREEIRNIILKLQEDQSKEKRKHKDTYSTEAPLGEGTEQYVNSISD

[20] = target: T7, Sentrin-specific protease 8 (Homo sapiens, UniProt Q96LD8); type: functional;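 further: luminescence read-out of SENP8 inhibition, dose-response confirmation following an ultra-high-throughput screen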
T7 sequence (Q96LD8 whole entry): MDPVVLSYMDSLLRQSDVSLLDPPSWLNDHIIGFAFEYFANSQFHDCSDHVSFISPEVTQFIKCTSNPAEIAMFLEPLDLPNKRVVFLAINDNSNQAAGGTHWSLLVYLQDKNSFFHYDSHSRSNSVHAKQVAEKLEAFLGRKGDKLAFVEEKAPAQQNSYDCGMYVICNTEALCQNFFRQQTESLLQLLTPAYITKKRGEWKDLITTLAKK

INS1 = test: INS-1E survival protection against cytokine death – cell-based, luminescence, retest, dose response (AID 449756); type: functional; settings: Rattus norvegicus;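 further: cell death triggered by IL-1 beta plus TNF-alpha plus IFN-gamma mixture; protective hits raise ATP signal compared with cytokine alone wells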
[21] = target: Peroxisome proliferator-activated receptor gamma/Nuclear receptor coactivator 1 (Homo sapiens, UniProt P37231); test: (§1) TR-FRET dose response biochemical High Throughput Screening assay for agonists of the steroid receptor coactivator 1 (SRC-1) recruitment by the peroxisome proliferator-activated receptor gamma (PPAR gamma): non-selective agonists. [Related pubchem assays (depositor defined):AID1300, AID1808, AID504735, AID631]; type: protein assay
[22] = target: Peroxisome proliferator-activated receptor gamma/Nuclear receptor coactivator 3 (Homo sapiens, UniProt P37231); test: as §1, with “3 (SRC-3)” for “1 (SRC-1)”, “assays: 1301 (Confirmation screen.), 1048 (Primary screen.)]” for “assays (depositor defined):AID1300, AID1808, AID504735, AID631]”; type: functional
[23] = target: Peroxisome proliferator-activated receptor gamma/Nuclear receptor coactivator 2 (Homo sapiens, UniProt P37231); test: TR-FRET dose response biochemical High Throughput Screening assay for agonists of the steroid receptor coactivator 2 (SRC-2) recruitment by the peroxisome proliferator-activated receptor gamma (PPAR gamma): non-selective agonists. [Related pubchem assays: 1297, 1032 ]; type: functional
Coagulation factor XII = target: T8, Coagulation factor XII (Homo sapiens, UniProt P00748); test: Factor XIIa Dose Response Confirmation from Single Well HTS. [Related pubchem assays (depositor defined):AID701]; type: functional
T8 sequence (P00748 whole entry): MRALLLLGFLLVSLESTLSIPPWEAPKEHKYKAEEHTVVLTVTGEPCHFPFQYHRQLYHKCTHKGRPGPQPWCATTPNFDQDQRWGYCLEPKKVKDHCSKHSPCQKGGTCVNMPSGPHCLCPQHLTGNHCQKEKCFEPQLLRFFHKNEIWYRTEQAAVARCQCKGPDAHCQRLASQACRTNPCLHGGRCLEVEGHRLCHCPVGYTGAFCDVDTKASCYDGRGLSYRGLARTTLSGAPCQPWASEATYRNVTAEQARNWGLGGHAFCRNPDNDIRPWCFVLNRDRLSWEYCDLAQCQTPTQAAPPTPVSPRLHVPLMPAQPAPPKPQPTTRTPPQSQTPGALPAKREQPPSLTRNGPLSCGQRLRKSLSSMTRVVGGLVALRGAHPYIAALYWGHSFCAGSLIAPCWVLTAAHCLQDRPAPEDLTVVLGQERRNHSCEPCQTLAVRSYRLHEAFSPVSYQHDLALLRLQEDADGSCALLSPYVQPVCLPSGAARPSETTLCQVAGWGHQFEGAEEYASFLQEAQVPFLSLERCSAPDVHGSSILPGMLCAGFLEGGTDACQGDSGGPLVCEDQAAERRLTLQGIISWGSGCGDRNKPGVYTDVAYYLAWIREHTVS

T2 sequence (P41143 whole entry): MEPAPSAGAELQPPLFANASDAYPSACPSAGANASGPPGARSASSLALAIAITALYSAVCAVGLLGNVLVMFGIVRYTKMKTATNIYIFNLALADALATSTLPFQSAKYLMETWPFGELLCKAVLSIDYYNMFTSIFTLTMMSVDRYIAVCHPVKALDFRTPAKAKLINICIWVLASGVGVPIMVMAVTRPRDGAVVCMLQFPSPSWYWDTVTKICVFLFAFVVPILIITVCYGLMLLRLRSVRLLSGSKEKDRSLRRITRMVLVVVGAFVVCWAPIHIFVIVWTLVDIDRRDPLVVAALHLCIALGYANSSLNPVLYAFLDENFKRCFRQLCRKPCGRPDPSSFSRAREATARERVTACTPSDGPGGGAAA
T3 sequence (P41145 whole entry): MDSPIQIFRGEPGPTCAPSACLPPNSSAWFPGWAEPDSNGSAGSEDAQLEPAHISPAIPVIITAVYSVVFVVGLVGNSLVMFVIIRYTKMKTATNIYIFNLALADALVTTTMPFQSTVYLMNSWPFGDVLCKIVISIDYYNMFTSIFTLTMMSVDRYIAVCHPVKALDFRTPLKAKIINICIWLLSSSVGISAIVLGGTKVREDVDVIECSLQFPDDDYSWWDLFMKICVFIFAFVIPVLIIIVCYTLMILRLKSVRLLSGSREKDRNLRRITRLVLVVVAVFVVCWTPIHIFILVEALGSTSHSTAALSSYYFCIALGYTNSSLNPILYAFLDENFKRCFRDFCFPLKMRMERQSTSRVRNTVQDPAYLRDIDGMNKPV
Sequence of Mu-type opioid receptor (P35372 whole entry): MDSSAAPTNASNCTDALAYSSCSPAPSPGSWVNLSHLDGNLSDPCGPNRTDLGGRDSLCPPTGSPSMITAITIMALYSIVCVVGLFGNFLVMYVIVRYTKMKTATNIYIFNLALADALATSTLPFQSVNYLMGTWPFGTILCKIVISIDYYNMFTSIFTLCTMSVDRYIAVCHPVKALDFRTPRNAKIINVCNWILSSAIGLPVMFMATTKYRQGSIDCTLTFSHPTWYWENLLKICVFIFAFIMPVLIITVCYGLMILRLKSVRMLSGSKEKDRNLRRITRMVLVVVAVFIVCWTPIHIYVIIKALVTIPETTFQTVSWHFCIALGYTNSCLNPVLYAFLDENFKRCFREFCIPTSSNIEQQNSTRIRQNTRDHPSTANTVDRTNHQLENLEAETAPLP
Sequence of Beta-galactosidase (Q8VNN2 whole entry): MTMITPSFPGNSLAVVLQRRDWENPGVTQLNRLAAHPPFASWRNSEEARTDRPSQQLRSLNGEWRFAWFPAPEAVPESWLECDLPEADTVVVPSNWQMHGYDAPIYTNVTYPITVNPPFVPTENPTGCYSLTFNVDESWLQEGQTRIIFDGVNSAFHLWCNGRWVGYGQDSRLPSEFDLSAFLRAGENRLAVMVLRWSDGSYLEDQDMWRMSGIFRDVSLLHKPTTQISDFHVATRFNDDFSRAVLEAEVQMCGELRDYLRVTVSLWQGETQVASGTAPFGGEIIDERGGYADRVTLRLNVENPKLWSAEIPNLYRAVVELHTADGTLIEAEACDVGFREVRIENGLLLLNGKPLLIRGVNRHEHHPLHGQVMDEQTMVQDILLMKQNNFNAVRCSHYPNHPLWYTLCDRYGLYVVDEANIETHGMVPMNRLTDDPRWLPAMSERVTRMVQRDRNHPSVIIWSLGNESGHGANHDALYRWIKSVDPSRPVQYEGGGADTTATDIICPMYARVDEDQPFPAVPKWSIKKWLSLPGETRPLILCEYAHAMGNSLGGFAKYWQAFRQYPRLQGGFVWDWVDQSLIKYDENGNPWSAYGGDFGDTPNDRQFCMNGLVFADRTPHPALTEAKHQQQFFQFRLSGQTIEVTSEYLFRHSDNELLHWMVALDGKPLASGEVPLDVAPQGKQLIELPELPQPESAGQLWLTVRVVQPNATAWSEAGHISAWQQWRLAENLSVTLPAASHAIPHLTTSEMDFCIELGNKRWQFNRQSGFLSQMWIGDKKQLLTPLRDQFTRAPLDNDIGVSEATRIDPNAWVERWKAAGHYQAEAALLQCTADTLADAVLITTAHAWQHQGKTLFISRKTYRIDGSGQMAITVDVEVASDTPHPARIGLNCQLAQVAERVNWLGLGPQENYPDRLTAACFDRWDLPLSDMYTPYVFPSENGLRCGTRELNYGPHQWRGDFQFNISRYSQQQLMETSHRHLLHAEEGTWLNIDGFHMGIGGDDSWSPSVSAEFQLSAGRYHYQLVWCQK
Sequence of Peroxisome proliferator-activated receptor gamma/Nuclear receptor coactivator 2 (P37231 whole entry): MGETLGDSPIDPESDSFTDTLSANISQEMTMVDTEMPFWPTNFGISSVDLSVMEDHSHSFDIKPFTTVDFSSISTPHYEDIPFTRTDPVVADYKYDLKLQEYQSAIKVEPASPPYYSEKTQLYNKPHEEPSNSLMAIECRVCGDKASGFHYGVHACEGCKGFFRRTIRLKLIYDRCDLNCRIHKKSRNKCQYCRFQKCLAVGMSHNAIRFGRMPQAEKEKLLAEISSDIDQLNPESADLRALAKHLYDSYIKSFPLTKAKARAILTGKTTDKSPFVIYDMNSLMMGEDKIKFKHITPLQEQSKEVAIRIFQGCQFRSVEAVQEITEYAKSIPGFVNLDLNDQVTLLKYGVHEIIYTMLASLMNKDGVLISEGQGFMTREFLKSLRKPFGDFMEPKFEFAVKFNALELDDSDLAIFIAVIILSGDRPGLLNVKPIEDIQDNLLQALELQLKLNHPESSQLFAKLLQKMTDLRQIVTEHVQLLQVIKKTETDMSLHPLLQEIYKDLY
Sequence of Peroxisome proliferator-activated receptor gamma/Nuclear receptor coactivator 2 (Q15596 whole entry, further chain): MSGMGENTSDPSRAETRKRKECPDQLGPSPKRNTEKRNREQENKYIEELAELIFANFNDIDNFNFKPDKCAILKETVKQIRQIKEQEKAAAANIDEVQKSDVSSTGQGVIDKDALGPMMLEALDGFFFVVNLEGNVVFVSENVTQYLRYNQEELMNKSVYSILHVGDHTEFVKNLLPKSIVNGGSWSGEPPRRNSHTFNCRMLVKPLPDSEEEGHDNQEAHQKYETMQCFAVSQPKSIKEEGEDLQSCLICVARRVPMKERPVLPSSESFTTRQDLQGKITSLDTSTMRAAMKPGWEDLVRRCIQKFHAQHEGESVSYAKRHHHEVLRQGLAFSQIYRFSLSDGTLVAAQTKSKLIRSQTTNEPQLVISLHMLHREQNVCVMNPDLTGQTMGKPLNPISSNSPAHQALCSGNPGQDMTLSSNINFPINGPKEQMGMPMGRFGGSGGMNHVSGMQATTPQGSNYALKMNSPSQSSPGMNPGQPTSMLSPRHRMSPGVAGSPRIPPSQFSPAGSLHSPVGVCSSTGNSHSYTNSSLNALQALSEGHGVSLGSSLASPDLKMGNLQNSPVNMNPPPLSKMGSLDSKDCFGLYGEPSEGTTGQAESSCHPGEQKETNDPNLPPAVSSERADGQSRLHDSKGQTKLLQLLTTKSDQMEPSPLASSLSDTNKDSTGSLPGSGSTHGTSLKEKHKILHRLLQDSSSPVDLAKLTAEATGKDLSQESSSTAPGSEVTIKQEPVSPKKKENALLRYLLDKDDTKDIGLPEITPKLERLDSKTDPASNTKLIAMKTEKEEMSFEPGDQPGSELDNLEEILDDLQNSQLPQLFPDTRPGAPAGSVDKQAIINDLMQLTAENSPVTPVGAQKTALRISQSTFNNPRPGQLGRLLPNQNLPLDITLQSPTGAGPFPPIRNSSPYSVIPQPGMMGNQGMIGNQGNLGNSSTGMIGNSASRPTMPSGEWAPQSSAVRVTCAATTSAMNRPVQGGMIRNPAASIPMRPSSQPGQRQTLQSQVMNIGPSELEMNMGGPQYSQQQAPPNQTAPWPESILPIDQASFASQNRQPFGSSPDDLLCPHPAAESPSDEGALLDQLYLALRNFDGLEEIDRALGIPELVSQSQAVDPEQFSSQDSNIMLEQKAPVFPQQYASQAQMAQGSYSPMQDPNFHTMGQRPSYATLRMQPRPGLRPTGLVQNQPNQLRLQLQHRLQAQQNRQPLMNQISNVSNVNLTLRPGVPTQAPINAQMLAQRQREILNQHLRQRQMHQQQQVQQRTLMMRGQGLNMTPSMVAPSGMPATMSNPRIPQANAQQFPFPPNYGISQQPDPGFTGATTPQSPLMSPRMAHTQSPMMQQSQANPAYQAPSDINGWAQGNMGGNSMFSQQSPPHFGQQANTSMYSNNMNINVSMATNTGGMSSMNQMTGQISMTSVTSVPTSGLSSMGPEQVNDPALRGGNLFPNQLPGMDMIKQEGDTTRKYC
Sequence of Intestinal-type alkaline phosphatase (Mus musculus, UniProt P24822) (P24822 whole entry): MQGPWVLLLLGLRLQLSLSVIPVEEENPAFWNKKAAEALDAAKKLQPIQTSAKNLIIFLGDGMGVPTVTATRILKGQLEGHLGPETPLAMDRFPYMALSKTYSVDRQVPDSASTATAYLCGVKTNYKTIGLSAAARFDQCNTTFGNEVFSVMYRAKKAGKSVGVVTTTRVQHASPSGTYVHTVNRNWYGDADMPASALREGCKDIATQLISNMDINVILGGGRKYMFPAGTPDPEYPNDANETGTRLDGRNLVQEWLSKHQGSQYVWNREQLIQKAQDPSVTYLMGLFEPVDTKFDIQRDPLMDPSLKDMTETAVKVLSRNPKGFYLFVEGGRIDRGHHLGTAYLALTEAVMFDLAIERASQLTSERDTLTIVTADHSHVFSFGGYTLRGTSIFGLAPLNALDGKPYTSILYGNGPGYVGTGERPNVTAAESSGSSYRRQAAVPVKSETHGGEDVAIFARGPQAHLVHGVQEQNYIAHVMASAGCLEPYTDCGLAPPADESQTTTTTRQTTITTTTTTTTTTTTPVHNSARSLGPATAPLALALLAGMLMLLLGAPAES

Nc1cc2nc3ccccc3oc-2cc1=O
active: EC50 [1] 72.1 µM | EC50 [2] 64.1 µM | EC50 [3] 74.5 µM

COc1cccc2sc(Nc3nc(-c4ccccn4)cs3)nc12
active: EC50 [5] 84.1 µM | EC50 (cells [8]) 64.5 µM | EC50 [9] 0.126 µM | EC50 [10] 2.23 µM | EC50 (BJ [11]) 12.2 µM | IC50 [12] 1.4 µM | EC50 (cells [13]) 6.91 µM | IC50 [14] 1.62 µM | IC50 (Caspase-3) 31.7 µM | IC50 [18] 4.38 µM | IC50 [19] 6.04 µM | AC50 (INS1) 1.17 µM
> 32 µM: IC50 [16]
inactive: IC50 [4] > 32 µM | EC50 (Mu-type opioid receptor) > 32 µM | EC50 [6] > 32 µM | EC50 (Beta-galactosidase) > 31.5 µM | IC50 [20] > 100 µM
inconclusive: EC50 (BJ [7]) 12.3 µM | EC50 (BJ [15]) 8.02 µM | EC50 [17] 17.5 µM

O=C(CCSc1nnc2ccc3ccccc3n12)Nc1ccc(F)cc1
20.9 µM (not active): EC50 [23]
inactive: EC50 [21] 24.3 µM | IC50 (Coagulation factor XII) > 50 µM
> 79.4 µM (not active): EC50 [22]

Reference: ChEMBL document CHEMBL1201862, “PubChem BioAssay data set” (2004)
